Residue numbers refer to the chain shown, from its start. “And” between values parts separate entries of the source, which are not always exact repeats. Equal entries are not always repeated.
How the values were obtained:
Type in all cases: cell-based
hTA1 V184P = target: T1, hTA1 V184P (Homo sapiens, UniProt Q96RJ0, V184P); assay: GloSensor cAMP accumulation assay, V184P mutant; conditions: for cAMP accumulation response, single replicate values (source data, Supplementary Figure 5): hTA1 V184P (N=2), log[Compound]
T1 construct: expressed in transfected cells; host or cells: HEK293T
T1 sequence (Q96RJ0 1-339 V184P): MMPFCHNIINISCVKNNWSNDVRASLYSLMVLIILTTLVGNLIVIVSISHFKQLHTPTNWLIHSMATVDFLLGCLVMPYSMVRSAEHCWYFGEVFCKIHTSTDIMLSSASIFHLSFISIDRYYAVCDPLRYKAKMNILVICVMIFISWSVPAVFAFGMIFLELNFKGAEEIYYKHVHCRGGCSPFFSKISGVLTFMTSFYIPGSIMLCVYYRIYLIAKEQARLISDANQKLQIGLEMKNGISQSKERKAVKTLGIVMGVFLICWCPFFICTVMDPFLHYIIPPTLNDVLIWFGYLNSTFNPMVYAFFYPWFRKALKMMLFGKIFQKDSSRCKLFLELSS

hTA1 C178S = target: T2, hTA1 C178S (Homo sapiens, UniProt Q96RJ0, C178S); assay: GloSensor cAMP accumulation assay, C178S mutant; conditions: for C178S - Normalized Luminescence Counts (N=2): log[Compound], single replicates
T2 construct: expressed in transfected cells; host or cells: HEK293T
T2 sequence (Q96RJ0 1-339 C178S): T1 sequence (Q96RJ0 1-339 V184P) with C178S, P184V

hTA1 W264F = target: T3, hTA1 W264F (Homo sapiens, UniProt Q96RJ0, W264F); assay: GloSensor cAMP accumulation assay, W264F mutant;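 further: cells transiently transfected with receptor plus GloSensor, luminescence read 30 min after agonist addition at room temperature, concentration-response curves fitted by log(agonist) vs response regression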
T3 construct: expressed in transfected cells; host or cells: HEK293T
T3 sequence (Q96RJ0 1-339 W264F): T1 sequence (Q96RJ0 1-339 V184P) with P184V, W264F

hTA1 C88S = target: T4, hTA1 C88S (Homo sapiens, UniProt Q96RJ0, C88S); assay: GloSensor cAMP accumulation assay, C88S mutant; conditions: C88S
T4 construct: expressed in transfected cells; host or cells: HEK293T
T4 sequence (Q96RJ0 1-339 C88S): T1 sequence (Q96RJ0 1-339 V184P) with C88S, P184V

[1] = target: T5, β2AR-Nterm-hTA1-F112^3.41W (CryoEM Construct) (Homo sapiens, UniProt Q96RJ0, F112W); assay: GloSensor cAMP accumulation assay, cryoEM construct;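 further: cells transiently co-transfected with the receptor construct and GloSensor cAMP biosensor, luminescence read after 30 min compound exposure at room temperature in the dark as cAMP accumulation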;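 on Normalized Luminescence Counts (N=2): normalized to the maximum response of β-PEA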
T5 construct: FLAG (N); 10xHis (N); TEV protease site (N); expressed in transfected cells; host or cells: HEK293T

[2] = C178S, each row one experiment (N=2), 3 replicates
[3] = Cryo EM Construct, mean of each independent experiment (3 replicates)

T5 sequence (Q96RJ0 with tags, fused parts or gaps F112W): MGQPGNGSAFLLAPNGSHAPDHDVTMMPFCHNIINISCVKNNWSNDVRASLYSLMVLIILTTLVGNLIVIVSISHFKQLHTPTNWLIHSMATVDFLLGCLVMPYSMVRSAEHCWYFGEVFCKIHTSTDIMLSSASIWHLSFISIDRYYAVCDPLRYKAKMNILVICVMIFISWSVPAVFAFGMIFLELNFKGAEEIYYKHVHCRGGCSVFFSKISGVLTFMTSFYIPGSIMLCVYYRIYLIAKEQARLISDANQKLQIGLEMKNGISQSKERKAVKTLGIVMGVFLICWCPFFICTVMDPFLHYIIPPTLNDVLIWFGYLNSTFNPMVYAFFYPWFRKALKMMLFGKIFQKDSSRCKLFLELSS

## NCCc1ccc(Oc2ccc(O)cc2)c(I)c1 [T1AM, 3-iodothyronamine]
hTA1 V184P; V184P, n=2
  Span ± SEM (Emax normalized to β-PEA): 70.26
  pEC50 ± SEM: 6.27 ± 0.05
hTA1 V184P; V184P, n=2, read-out: EC50
  EC50: 539 nM
hTA1 V184P; M = -5
  cAMP accumulation response, single replicate values (source data, Supplementary Figure 5): 47.1774 and 43.1039 and 48.2443 and 102.347 and 62.5054 and 96.189
hTA1 V184P; M = -5.522
  cAMP accumulation response, single replicate values (source data, Supplementary Figure 5): 32.0474 and 39.1275 and 36.5088 and 86.7693 and 72.5115 and 76.5066
hTA1 V184P; M = -6
  cAMP accumulation response, single replicate values (source data, Supplementary Figure 5): 40.0973 and 27.683 and 25.5492 and 73.6844 and 54.6984 and 67.6001
hTA1 V184P; M = -6.522
  cAMP accumulation response, single replicate values (source data, Supplementary Figure 5): 14.9776 and 12.068 and 13.8138 and 37.1052 and 29.2983 and 35.6391
hTA1 V184P; M = -7
  cAMP accumulation response, single replicate values (source data, Supplementary Figure 5): 5.085 and 5.182 and 3.9211 and 15.2237 and 21.0881 and 16.0667
hTA1 V184P; M = -7.522
  cAMP accumulation response, single replicate values (source data, Supplementary Figure 5): -0.4433 and -1.4132 and 0.1386 and 3.678 and 3.238 and 3.861
hTA1 V184P; M = -8
  cAMP accumulation response, single replicate values (source data, Supplementary Figure 5): -0.9283 (2×) and -1.51 and 5.3642 and 2.908 and 3.861
hTA1 V184P; M = -8.522
  cAMP accumulation response, single replicate values (source data, Supplementary Figure 5): -1.316 and -1.607 and -1.51 and 1.809 and 2.2854 and 1.442
hTA1 V184P; M = -9
  cAMP accumulation response, single replicate values (source data, Supplementary Figure 5): -1.704 (2×) and -1.801 and 1.442 and -0.5735 and 0.4894
hTA1 V184P; M = -9.522
  cAMP accumulation response, single replicate values (source data, Supplementary Figure 5): -1.4132 and -1.801 and -1.607 and 0.3795 and -0.4269 and 0.5994
hTA1 V184P; M = -10
  cAMP accumulation response, single replicate values (source data, Supplementary Figure 5): -1.51 and -1.801 (2×) and 1.149 and -0.207 and 0.01294
hTA1 V184P; M = -10.522
  cAMP accumulation response, single replicate values (source data, Supplementary Figure 5): -1.316 and -1.607 (2×) and -0.2803 and 0.08625 and -1.233
hTA1 V184P; M = -11
  cAMP accumulation response, single replicate values (source data, Supplementary Figure 5): -1.801 and -1.122 and -1.4132 and 0.746 and 0.7093 and 0.1596
hTA1 V184P; M = -11.522
  cAMP accumulation response, single replicate values (source data, Supplementary Figure 5): -1.316 and -1.025 and -1.4132 and 0.636 and 1.039 and -0.3169
hTA1 V184P; M = -12
  cAMP accumulation response, single replicate values (source data, Supplementary Figure 5): -1.801 and -1.122 and -1.219 and -0.4635 and 0.9659 and -0.1337
hTA1 V184P; M = -12.522
  cAMP accumulation response, single replicate values (source data, Supplementary Figure 5): -1.219 and -0.7343 and -1.607 and 0.0496 and -0.3536 and -0.6468
hTA1 V184P; hTA1 V184P mutant minus WT average
  ΔpEC50 values (each mutant value - WT average), Mean: 0.071 and 0.2071
hTA1 V184P; hTA1 V184P mutant, Figure 3B source data, each grid row a separate experiment, 3 replicates
  pEC50 values, Mean: 6.2 and 6.336
hTA1 V184P; hTA1 V184P mutant, β-PEA set to 100, each grid row a separate experiment, 3 replicates
  Emax values, Mean: 49.3182 and 91.2084
hTA1 C178S; [2]
  pEC50 values, Mean: 5.899 and 6.116
  ΔpEC50 values (each mutant value - WT average), Mean: -0.2302 and -0.01318
hTA1 C178S; C178S, n=2
  Span ± SEM (Emax normalized to β-PEA): 86.82 ± 7.63
  pEC50 ± SEM: 6.01 ± 0.05
hTA1 C178S; C178S, n=2, read-out: EC50
  EC50: 983 nM
hTA1 C178S; C178S, β-PEA = 100, each row one experiment (N=2), 3 replicates
  Emax values, Mean: 79.1908 and 94.4471
hTA1 C178S; M = -5
  C178S - Normalized Luminescence Counts (N=2): 73.1003 and 72.1657 and 63.8478 and 81.3738 and 108.419 and 79.3694
hTA1 C178S; M = -5.522
  C178S - Normalized Luminescence Counts (N=2): 52.0253 and 55.0627 and 58.1468 and 73.8647 and 83.1688 and 53.1323
hTA1 C178S; M = -6
  C178S - Normalized Luminescence Counts (N=2): 32.3989 and 32.726 and 30.2026 and 62.7356 and 57.5001 and 49.3328
hTA1 C178S; M = -6.522
  C178S - Normalized Luminescence Counts (N=2): 18.0529 and 16.5576 and 18.9875 and 30.7245 and 26.2071 and 22.4375
hTA1 C178S; M = -7
  C178S - Normalized Luminescence Counts (N=2): 4.642 and 4.221 and 4.735 and 9.753 and 8.496 and 8.018
hTA1 C178S; M = -7.522
  C178S - Normalized Luminescence Counts (N=2): 0.763 and 0.4359 and 0.01533 and 0.9572 and 2.124 and 0.4486
hTA1 C178S; M = -8
  C178S - Normalized Luminescence Counts (N=2): -0.8725 and -0.6389 and -0.8258 and 3.769 and 2.842 and 2.124
hTA1 C178S; M = -8.522
  C178S - Normalized Luminescence Counts (N=2): -0.6389 and -1.6202 and -1.667 and 1.376 and 0.02978 and -2.184
hTA1 C178S; M = -9
  C178S - Normalized Luminescence Counts (N=2): -0.5921 and -1.854 and -1.48 and 0.05969 and 0.9871 and -1.316
hTA1 C178S; M = -9.522
  C178S - Normalized Luminescence Counts (N=2): -1.293 and -1.48 and -0.6389 and -0.03006 and -0.3591 and -0.4489
hTA1 C178S; M = -10
  C178S - Normalized Luminescence Counts (N=2): -0.2183 and -0.5454 and -0.966 and -0.5087 and 0.4187 and -1.556
hTA1 C178S; M = -10.522
  C178S - Normalized Luminescence Counts (N=2): -0.7791 and -0.8258 and -0.8725 and -0.2993 and -0.5386 and -2.962
hTA1 C178S; M = -11
  C178S - Normalized Luminescence Counts (N=2): -1.433 and -0.8258 and -0.4987 and 1.047 and 0.4785 and -0.2993
hTA1 C178S; M = -11.522
  C178S - Normalized Luminescence Counts (N=2): -1.293 and -0.6389 and -1.059 and 2.124 and 1.1367 and -0.9276
hTA1 C178S; M = -12
  C178S - Normalized Luminescence Counts (N=2): -0.1249 and -0.6856 and 0.06206 and -0.2096 and -0.5386 and -1.227
hTA1 C178S; M = -12.522
  C178S - Normalized Luminescence Counts (N=2): -0.7323 and -0.7791 and -0.8725 and 0.2691 and -0.419 and 0.299
hTA1 W264F; W246F mutant (so in the source) minus WT average
  ΔEmax values (each mutant value - WT average): -30.8369
hTA1 W264F; W246F mutant (so in the source), β-PEA = 100, each line an independent experiment, 3 replicates
  Emax values, Mean: 17.7915
hTA1 W264F; W264F, n=2
  Span ± SEM (Emax normalized to β-PEA): 28.7 ± 10.91
  pEC50 ± SEM: 4.95 ± 0.97
hTA1 W264F; W264F, n=2, read-out: EC50
  EC50: 11300 nM
hTA1 C88S; Mean of fit per experiment
  Emax values: 51.5909 and 77.2309
  pEC50 values: 6.196 and 6.127
hTA1 C88S; n=2
  Span ± SEM (Emax normalized to β-PEA): 64.41
  pEC50 ± SEM: 6.16 ± 0.04
hTA1 C88S; n=2, read-out: EC50
  EC50: 690 nM
[1]; Cryo EM Construct minus WT average
  ΔEmax values (each mutant value - WT average), Mean: 57.4068 and 36.3707
[1]; [3]
  Emax values, Mean: -0.05087 and 0.4178
  pEC50 values, Mean: 6.078 and 6.547
[1]; CryoEM Construct, log[Compound], M = -5, single replicates
  Normalized Luminescence Counts (N=2): 123.162 and 140.16 and 121.528 and 161.688
[1]; CryoEM Construct, n=2
  Span ± SEM (Emax normalized to β-PEA): 115.44
  pEC50 ± SEM: 6.3 ± 0.04
[1]; CryoEM Construct, n=2, read-out: EC50
  EC50: 491 nM

From publication PMC10762035, “Molecular basis of human trace amine-associated receptor 1 activation” (Nature Communications, 2024)
